Experimental data as given in patent US20240041042A1, “1-(PYRIDYL)-5-AZINYLPYRAZOLE DERIVATIVES, AND THEIR USE FOR CONTROL OF UNDESIRED PLANT GROWTH” (Bayer Aktiengesellschaft, priority 2020, published 2024).
Like-named read-outs stand apart in the source and are kept apart here.

Tests used:
Assay type in all cases: in vivo
[1] = test system: Polygonum convolvulus (POLCO); assay: Post-emergence herbicidal action against POLCO
Outline: (§1)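 Rates were 320 g/ha or below, applied as aqueous WP/EC spray with 0.5% additive (600 l/ha) onto one-leaf-stage plants. About 3 weeks later in the greenhouse, damage was scored visually against untreated plants on a 0–100% scale, where 100% means plants died.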

Oryza sativa (ORYSA) [2] = conditions: crop plant compatibility, effect in comparison to untreated controls
Outline: (§2)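 Percent effect on the crop was judged by eye against untreated controls, where 0% means like control and 100% means dead plants. Plants had been sprayed post-emergence at the one-leaf stage and then kept under optimum greenhouse conditions for about 3 weeks.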

Zea mays (ZEAMX) [3] = conditions: crop plant compatibility, 80 g/ha, effect vs untreated controls
Outline: as §2

[4] = test system: Alopecurus myosuroides (ALOMY); assay: Post-emergence herbicidal action against ALOMY; conditions: 320 g/ha, visual rating about 3 weeks after treatment vs untreated controls (100% = plants have died, 0% = like control plants)
Outline: as §1

[5] = test system: Pharbitis purpurea (PHBPU); assay: Post-emergence herbicidal action against PHBPU; conditions: dosage 320 g/ha
Outline: as §1

Lolium rigidum (LOLRI) [6] = assay: Pre-emergence herbicidal action against LOLRI; conditions: dosage 320 g/ha
Outline: (§3)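 Greenhouse pot trial: seeds sown, soil-covered, sprayed before emergence with compound in water (0.5% additive; 600 l/ha; ≤320 g/ha). Scoring visual, ~3 weeks, 0–100% scale vs untreated.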

Glycine max (GLXMA) = conditions: pre-emergence, crop plant compatibility, in comparison to untreated controls
Outline: (§4)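 Scoring: visual, % of untreated control, about 3 weeks after a pre-emergence application to the soil surface. Application used WP or EC formulations diluted in water with 0.5% additive at 600 l/ha; dosage levels are marked by suffixes a, b and c.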

Zea mays (ZEAMX) [7] = conditions: pre-emergence, crop plant compatibility, in comparison to untreated controls
Outline: as §4

Viola tricolor (VIOTR) [8] = assay: Post-emergence herbicidal action against VIOTR
Outline: as §1

[9] = test system: Polygonum convolvulus (POLCO); assay: Pre-emergence herbicidal action against POLCO; conditions: dosage 320 g/ha
Outline: as §3

[10] = test system: Amaranthus retroflexus (AMARE); assay: Pre-emergence herbicidal action against AMARE; conditions: 320 g/ha, visual scoring after about 3 weeks vs untreated controls
Outline: as §3

[11] = test system: Digitaria sanguinalis (DIGSA); assay: Post-emergence herbicidal action against DIGSA; conditions: 320 g/ha, visual rating about 3 weeks after treatment
Outline: as §1

Viola tricolor (VIOTR) [12] = assay: Pre-emergence herbicidal action against VIOTR; conditions: 320 g/ha, Viola tricolor
Outline: as §3

[13] = test system: Alopecurus myosuroides (ALOMY); assay: Pre-emergence herbicidal action against ALOMY; conditions: 320 g/ha; scored visually after about 3 weeks; 100% = plants have died
Outline: as §3

[14] = test system: Digitaria sanguinalis (DIGSA); assay: Pre-emergence herbicidal action against DIGSA; conditions: dosage 320 g/ha
Outline: as §3

Lolium rigidum (LOLRI) [15] = assay: Post-emergence herbicidal action against LOLRI; conditions: dosage 320 g/ha
Outline: as §1

[16] = test system: Amaranthus retroflexus (AMARE); assay: Post-emergence herbicidal action against AMARE
Outline: as §1

[17] = test system: Echinochloa crus-galli (ECHCG); assay: Post-emergence herbicidal action against ECHCG; conditions: dosage 320 g/ha
Outline: as §1

Oryza sativa (ORYSA) [18] = conditions: pre-emergence, crop plant compatibility, in comparison to untreated controls
Outline: as §4

[19] = test system: Verconica persica (VERPE); assay: Post-emergence herbicidal action against VERPE; conditions: 320 g/ha, VERPE
Outline: as §1

[20] = 320 g/ha, visual rating about 3 weeks after treatment

Post-emergence action against ORYSA in % (Oryza sativa (ORYSA) [2]; 320 g/ha) | Post-emergence action against ZEAMX in % (Zea mays (ZEAMX) [3]) | Pre-emergence action against GLXMA in % (Glycine max (GLXMA); 80 g/ha) | Pre-emergence action against ZEAMX in % (Zea mays (ZEAMX) [7]; 80 g/ha) | Post-emergence action against ORYSA in % (Oryza sativa (ORYSA) [2]; 80 g/ha) | SMILES | Post-emergence action against POLCO in % ([1]; dosage 320 g/ha) | Post-emergence action against ALOMY in % [4] | Post-emergence action against PHBPU in % [5] | Pre-emergence action against LOLRI in % (Lolium rigidum (LOLRI) [6]) | Post-emergence action against VIOTR in % (Viola tricolor (VIOTR) [8]; 320 g/ha) | Pre-emergence action against POLCO in % [9] | Pre-emergence action against AMARE in % [10] | Pre-emergence action against VIOTR in % (Viola tricolor (VIOTR) [12]) | Pre-emergence action against ALOMY [13] | Pre-emergence action against DIGSA in % [14] | Post-emergence action against LOLRI in % (Lolium rigidum (LOLRI) [15]) | Post-emergence action against AMARE in % [16, 20] | also measured
0% | 20% | 0% | 0% |  | COC(=O)CCOC(=O)[C@@H](C)Oc1nn(-c2ccccn2)c(-c2ccc(Cl)nc2)c1Br [Example I-244] | 80% | 80% | 80% | 100% | 80% | 80% | 90% | 90% | 90% | 90% | 80% |  | Post-emergence action against POLCO in % ([1]; dosage 80 g/ha): 80%; Post-emergence action against VIOTR in % (Viola tricolor (VIOTR) [8]; 80 g/ha): 80%; Post-emergence action against DIGSA in % [11]: 80%
10% | 10% | 20% |  | 0% | C[C@@H](Oc1nn(-c2ccccn2)c(-c2ccc(Cl)nc2)c1Cl)C(=O)O [Example I-238] | 80% | 80% | 80% | 90% | 80% | 80% | 80% | 90% | 90% | 90% | 80% | 80% | Post-emergence action against ECHCG in % [17]: 80%
20% | 20% | 20% | 0% | 10% | C[C@@H](Oc1nn(-c2ccnc(Cl)c2)c(-c2ccc(F)nc2)c1Br)C(=O)O [III-30] | 90% | 80% |  |  | 80% |  |  |  |  |  |  | 90% | Post-emergence action against AMARE in % ([16]; 80 g/ha, visual rating about 3 weeks after treatment vs untreated controls (100% = plants have died, 0% = like control plants)): 80%; Pre-emergence action against ORYSA in % (Oryza sativa (ORYSA) [18]; 80 g/ha): 10%; Pre-emergence action against ORYSA in % (Oryza sativa (ORYSA) [18]; 320 g/ha): 20%; Pre-emergence action against GLXMA in % (Glycine max (GLXMA); 320 g/ha): 20%; Pre-emergence action against ZEAMX in % (Zea mays (ZEAMX) [7]; 320 g/ha): 10%; Post-emergence action against VERPE in % [19]: 80%
